We go through 31 molecules from US9624209B2, “Substituted phenylureas and phenylamides as vanilloid receptor ligands” (Gruenenthal GmbH, priority 2009, dated 2017).

The target of the assay is T1, vanilloid receptor 1 (VR1/TRPV1 receptor) (Homo sapiens, UniProt Q8NER1).
T1 construct: expressed in transfected cells; host or cells: CHO K1 cells (ECACC), stably transfected
Briefly: VR1/TRPV1 receptor affinity, capsaicin stimulus (human). The class given is cell-based, human being. On the set-up: key to (f) Ki (human being) [nM] Cap: result in words: AG=agonist; pAG=partial agonist; NE=no effect. Particulars: for Ki: Tables 8-12, read-out: (f) Ki (human being) [nM] Cap; for (f) Ki (human being) [nM] Cap: result in words: Tables 8-12; for inhibition at 5 µM: Tables 8-12, read-out: (f) Ki (human being) [nM] Cap: inhibition (as a percentage).

T1 sequence (Q8NER1 whole entry): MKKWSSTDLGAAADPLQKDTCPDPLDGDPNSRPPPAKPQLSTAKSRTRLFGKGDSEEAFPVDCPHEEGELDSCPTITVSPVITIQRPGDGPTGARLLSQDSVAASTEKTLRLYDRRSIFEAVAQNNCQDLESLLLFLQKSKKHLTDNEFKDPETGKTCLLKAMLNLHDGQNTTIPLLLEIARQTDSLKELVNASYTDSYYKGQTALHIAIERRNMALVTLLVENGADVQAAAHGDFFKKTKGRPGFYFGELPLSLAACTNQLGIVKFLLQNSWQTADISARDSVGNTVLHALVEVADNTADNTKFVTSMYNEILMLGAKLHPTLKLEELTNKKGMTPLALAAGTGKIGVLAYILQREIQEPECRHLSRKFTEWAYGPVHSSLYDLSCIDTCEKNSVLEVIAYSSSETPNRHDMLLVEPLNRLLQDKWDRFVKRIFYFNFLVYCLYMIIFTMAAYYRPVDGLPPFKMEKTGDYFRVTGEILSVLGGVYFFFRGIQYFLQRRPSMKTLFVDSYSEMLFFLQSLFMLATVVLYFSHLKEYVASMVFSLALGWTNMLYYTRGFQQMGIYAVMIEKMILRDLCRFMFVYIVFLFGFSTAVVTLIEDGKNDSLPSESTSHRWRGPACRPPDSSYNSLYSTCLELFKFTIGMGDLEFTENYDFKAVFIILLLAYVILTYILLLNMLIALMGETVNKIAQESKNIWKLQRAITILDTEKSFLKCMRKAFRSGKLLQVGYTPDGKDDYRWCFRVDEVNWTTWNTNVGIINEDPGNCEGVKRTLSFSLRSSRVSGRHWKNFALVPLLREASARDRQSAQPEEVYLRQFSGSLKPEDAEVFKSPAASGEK

Usually Ki stands for a dissociation constant, usually derived from enzyme kinetics or from competition with a known ligand. Regarding “4-[1-[[5-tert-Butyl-2-(3-chlorophenyl)-2H-pyrazol-3-yl]-methyl-carbamoyl]-ethyl]-N-[4-(trifluoromethyl)-phenyl]-benzamide [Example E47]”, the Ki came to 3 nM. Take “1-[[5-tert-Butyl-2-(3-chlorophenyl)-2H-pyrazol-3-yl]-methyl]-3-[3-fluoro-4-(hydroxymethyl)-phenyl]-urea [Example A55]”: the Ki is 3 nM.

Turning to `CC(C)(C)c1cc(CNC(=O)Nc2ccc(CNS(C)(=O)=O)cc2)n(-c2cccc(Cl)c2)n1` [Example B28, 1-[[5-tert-Butyl-2-(3-chlorophenyl)-2H-pyrazol-3-yl]-methyl]-3-[4-(methanesulfonamido-methyl)-phenyl]-urea], the inhibition constant Ki came out at 11 nM.

Regarding `CC(C(=O)NCc1cc(C(C)(C)C)nn1-c1cccc(Cl)c1)c1ccc(CCO)c(F)c1` (stereo not shown) [Example A139, N-[[5-tert-Butyl-2-(3-chlorophenyl)-2H-pyrazol-3-yl]-methyl]-2-[3-fluoro-4-(2-hydroxy-ethyl)-phenyl]-propionamide], the “(f) Ki (human being) [nM] Cap: result in words” value is recorded as “AG”.

For the molecule `CC(C)c1cccc(-n2nc(C(F)(F)F)cc2CNC(=O)Nc2ccc(CNS(N)(=O)=O)cc2)c1` [Example B79, 1-[[2-(3-Isopropyl-phenyl)-5-(trifluoromethyl)-2H-pyrazol-3-yl]-methyl]-3-[4-[(sulfamoylamino)-methyl]-phenyl]-urea], the Ki is 2 nM. On the same count and under the same terms, as for `CNCc1ccc(C(C)C(=O)NCc2cc(C(C)(C)C)nn2-c2cccc(Cl)c2)cc1F` (stereo not shown) [Example B63, N-[[5-tert-Butyl-2-(3-chlorophenyl)-2H-pyrazol-3-yl]-methyl]-2-[3-fluoro-4-(methylamino-methyl)-phenyl]-propionamide], the figure is 30 nM.

In general, inhibition refers to how much of the control response was suppressed. As to `CC(C(=O)N(C)c1cc(C(F)(F)F)nn1-c1cccc(Cl)c1)c1ccc(C(=O)NC2CCOCC2)c(F)c1` (stereo not shown) [Example E23, 4-[1-[[2-(3-Chlorophenyl)-5-(trifluoromethyl)-2H-pyrazol-3-yl]-methyl-carbamoyl]-ethyl]-2-fluoro-N-tetrahydro-pyran-4-yl-benzamide], the inhibition at 5 µM was found to be 24.8%. For `CC(C)(C)c1cc(CNC(=O)Nc2ccc(CCS(C)(=O)=O)c(F)c2)n(-c2cccc(Cl)c2)n1` [Example D29, 1-[[5-tert-Butyl-2-(3-chlorophenyl)-2H-pyrazol-3-yl]-methyl]-3-[3-fluoro-4-(2-methylsulfonyl-ethyl)-phenyl]-urea], the Ki was 13 nM. In the case of “4-[1-[[5-tert-Butyl-2-(3-chlorophenyl)-2H-pyrazol-3-yl]-methyl-carbamoyl]-ethyl]-2-fluoro-N-[4-(trifluoromethyl)-phenyl]-benzamide [Example E49]”, the inhibition constant (Ki) was determined as 3 nM. As for `CC(C)(C)c1cc(CNC(=O)Nc2ccc(CNS(N)(=O)=O)cc2)n(-c2cccc(Cl)c2)n1` [Example B36, 1-[[5-tert-Butyl-2-(3-chlorophenyl)-2H-pyrazol-3-yl]-methyl]-3-[4-[(sulfamoylamino)-methyl]-phenyl]-urea], the inhibition constant Ki was 6 nM. The same measure, in the same setting: the same measure for `CC(C(=O)NCc1cc(C(F)(F)F)nn1-c1ccc(F)c(F)c1)c1ccc(CNS(C)(=O)=O)c(F)c1` (stereo not shown) [Example B19, N-[[2-(3,4-Difluoro-phenyl)-5-(trifluoromethyl)-2H-pyrazol-3-yl]-methyl]-2-[3-fluoro-4-(methanesulfonamido-methyl)-phenyl]-propionamide]: 6 nM. For `CN(C)Cc1ccc(NC(=O)NCc2cc(C(F)(F)F)nn2-c2cccc(Cl)c2)cc1F` [Example B38, 1-[[2-(3-Chlorophenyl)-5-(trifluoromethyl)-2H-pyrazol-3-yl]-methyl]-3-[4-(dimethylaminomethyl)-3-fluoro-phenyl]-urea], the inhibition at 5 µM amounted to 18%. As to `CC(C(=O)NCc1cc(C(C)(C)C)nn1-c1ccc(F)c(Cl)c1)c1ccc(CO)c(F)c1` (stereo not shown) [Example A41, N-[[5-tert-Butyl-2-(3-chloro-4-fluoro-phenyl)-2H-pyrazol-3-yl]-methyl]-2-[3-fluoro-4-(hydroxymethyl)-phenyl]-propionamide], the “(f) Ki (human being) [nM] Cap: result in words” value is on record as “AG”. As for `Cc1cccc(-n2nc(C(C)(C)C)cc2CNC(=O)C(C)c2ccc(CNS(C)(=O)=O)c(F)c2)c1` (stereo not shown) [Example B88, N-[[5-tert-Butyl-2-(m-tolyl)-2H-pyrazol-3-yl]-methyl]-2-[3-fluoro-4-(methanesulfonamido-methyl)-phenyl]-propionamide], the inhibition constant Ki is 29 nM. On the same count and under the same terms, as for `CCC(=O)c1ccc(C(C)C(=O)NCc2cc(C(F)(F)F)nn2-c2cccc(F)c2)cc1F` (stereo not shown) [Example E1, N-[[2-(3-Fluorophenyl)-5-(trifluoromethyl)-2H-pyrazol-3-yl]-methyl]-2-(3-fluoro-4-propanoyl-phenyl)-propionamide], the figure is 24 nM; as for `CCS(=O)(=O)NCc1ccc(NC(=O)NCc2cc(C(C)(C)C)nn2-c2cccc(C)c2)cc1` [Example B92, 1-[[5-tert-Butyl-2-(m-tolyl)-2H-pyrazol-3-yl]-methyl]-3-[4-[[(ethylsulfonyl)amino]-methyl]-phenyl]-urea], 67 nM. Same read-out and setting: the same measure for `COc1cccc(-n2nc(C(F)(F)F)cc2CNC(=O)Nc2ccc(CNS(C)(=O)=O)c(F)c2)c1` [Example B58, 1-[3-Fluoro-4-(methanesulfonamido-methyl)-phenyl]-3-[[2-(3-methoxyphenyl)-5-(trifluoromethyl)-2H-pyrazol-3-yl]-methyl]-urea]: 16 nM.

As to `CS(=O)(=O)NCc1ccc(NC(=O)NCc2cc(C(F)(F)F)nn2-c2cccc(C(F)(F)F)c2)cc1F` [Example B55, 1-[3-Fluoro-4-(methanesulfonamido-methyl)-phenyl]-3-[[5-(trifluoromethyl)-2-[3-(trifluoromethyl)phenyl]-2H-pyrazol-3-yl]-methyl]-urea], the Ki is 27 nM. The same measure, in the same setting: as for `COc1cc(NC(=O)NCc2cc(C(F)(F)F)nn2-c2cccc(C)c2)ccc1CNS(C)(=O)=O` [Example B86, 1-[4-(Methanesulfonamido-methyl)-3-methoxy-phenyl]-3-[[2-(m-tolyl)-5-(trifluoromethyl)-2H-pyrazol-3-yl]-methyl]-urea], the figure is 93 nM. For the molecule `CC(C(=O)NCc1cc(C(F)(F)F)nn1-c1cccc(Cl)c1)c1ccc(N2CCCS2(=O)=O)c(F)c1` (stereo not shown) [Example C1, N-[[2-(3-Chlorophenyl)-5-(trifluoromethyl)-2H-pyrazol-3-yl]-methyl]-2-[4-(1,1-dioxo-[1,2]thiazolidin-2-yl)-3-fluoro-phenyl]-propionamide], the Ki worked out at 49 nM. The same measure, in the same setting: the same measure for `CC(C)(C)c1cc(CNC(=O)Nc2cc(F)c(CNS(C)(=O)=O)c(F)c2)n(-c2cccc(Cl)c2)n1` [Example B32, 1-[[5-tert-Butyl-2-(3-chlorophenyl)-2H-pyrazol-3-yl]-methyl]-3-[3,5-difluoro-4-(methanesulfonamido-methyl)-phenyl]-urea]: 2 nM; for “4-[1-[[5-tert-Butyl-2-(3-chlorophenyl)-2H-pyrazol-3-yl]-methyl-carbamoyl]-ethyl]-2-fluoro-N-phenyl-benzamide [Example E29]”: 5 nM; for `CNCc1ccc(NC(=O)NCc2cc(C(F)(F)F)nn2-c2cccc(Cl)c2)cc1` [Example B14, 1-[[2-(3-Chlorophenyl)-5-(trifluoromethyl)-2H-pyrazol-3-yl]-methyl]-3-[4-(methylamino-methyl)-phenyl]-urea]: 64 nM. Consider `CC(C)c1cccc(-n2nc(C(F)(F)F)cc2CNC(=O)C(C)c2ccc(CNS(C)(=O)=O)c(F)c2)c1` (stereo not shown) [Example B82, 2-[3-Fluoro-4-(methanesulfonamido-methyl)-phenyl]-N-[[2-(3-isopropyl-phenyl)-5-(trifluoromethyl)-2H-pyrazol-3-yl]-methyl]-propionamide], for which the Ki was found to be 0.8 nM.

Consider `CS(=O)(=O)NCc1ccc(NC(=O)NCc2cc(C(F)(F)F)nn2-c2cccc(Cl)c2)cc1F` [Example B52, 1-[[2-(3-Chlorophenyl)-5-(trifluoromethyl)-2H-pyrazol-3-yl]-methyl]-3-[3-fluoro-4-(methanesulfonamido-methyl)-phenyl]-urea], for which the Ki worked out at 9 nM. For “4-[[[5-tert-Butyl-2-(3-chlorophenyl)-2H-pyrazol-3-yl]-methyl-carbamoyl]amino]-2-fluoro-N,N-dimethyl-benzamide [Example E12]”, the Ki was determined as 62 nM.

In the case of `NS(=O)(=O)NCc1ccc(NC(=O)NCc2cc(C(F)(F)F)nn2-c2ccc(F)c(Cl)c2)cc1F` [Example B70, 1-[[2-(3-Chloro-4-fluoro-phenyl)-5-(trifluoromethyl)-2H-pyrazol-3-yl]-methyl]-3-[3-fluoro-4-[(sulfamoylamino)-methyl]-phenyl]-urea], the Ki worked out at 14 nM. For `CC(C(=O)NCc1cc(C(F)(F)F)nn1-c1cccc(Cl)c1)c1ccc(CN)c(F)c1` (stereo not shown) [Example B42, 2-[4-(Aminomethyl)-3-fluoro-phenyl]-N-[[2-(3-chlorophenyl)-5-(trifluoromethyl)-2H-pyrazol-3-yl]-methyl]-propionamide], the inhibitory constant (Ki) is 46 nM. Regarding `O=C(NCc1cc(C(F)(F)F)nn1-c1cccc(Cl)c1)Nc1ccc(CN2CCCC2)cc1` [Example B99, 1-[[2-(3-Chlorophenyl)-5-(trifluoromethyl)-2H-pyrazol-3-yl]-methyl]-3-[4-(pyrrolidin-1-yl-methyl)-phenyl]-urea], the inhibition at 5 µM was 43%. For the molecule `CC(C)(C)c1cc(CNC(=O)Nc2ccc(CNS(C)(=O)=O)cc2)n(-c2cccc(F)c2)n1` [Example B45, 1-[[5-tert-Butyl-2-(3-fluorophenyl)-2H-pyrazol-3-yl]-methyl]-3-[4-(methanesulfonamido-methyl)-phenyl]-urea], the Ki was determined as 31 nM. For the molecule `CC(C)c1cccc(-n2nc(C(F)(F)F)cc2CNC(=O)Nc2ccc(CNS(C)(=O)=O)c(F)c2)c1` [Example B73, 1-[3-Fluoro-4-(methanesulfonamido-methyl)-phenyl]-3-[[2-(3-isopropyl-phenyl)-5-(trifluoromethyl)-2H-pyrazol-3-yl]-methyl]-urea], the Ki came to 3 nM.
